The test system of data set [1] is Aspergillus flavus (DSM 1959). As to the kind of experiment: Radial diffusion assay, antifungal, A. flavus. The class given is cell-based. The settings on record: 20 μg. The procedure: (§1) The radial diffusion assay (RDA) was carried out as described by Andersen et al. (2010). Briefly, 30 ml of 1/10 Muller-Hinton broth (MHB) supplemented with 1% agarose and 5.0×10^5 CFU/ml S. aureus or E. coli or K. pneumoniae, P. aeruginosa cells was poured into a single-well omnitray (Nunc) and overlaid with a TSP 96-well plate. One hundred μg of each synthesized peptide was tested. The peptides were also tested against Fusarium oxysporum and Verticillium dahliae, for which 1/3 potato dextrose agarose was used. To test the synergistic effect of peptides, each peptide was mixed in equimolar concentrations. Mix1 (met1-12), Mix2 (met3, 4 and 5), Mix3 (met 8, 9 and 10), Mix 4 (met11, 12) and Mix5 (8, 9, 10, 11, 12) were prepared and tested against E. coli and S. aureus. Gentamicin and vancomycin were included as positive controls for bacteria and amphotericin B was used as the control for fungi.
(§2) By using rational design techniques, we have designed variants of peptides by incorporating or replacing various amino acids in the original peptides. Thus, we have designed and modified Chain 100, Chain 200 and Chain 300 with tryptophan (W), arginine (R) and lysine (K) at various positions to improve antimicrobial activity (FIGS. 4a-c and 5a-c). In some peptides we have also used other amino acids such as Leucine (L), Cysteine (C), Isoleucine (I), Phenylalanine (F) and Alanine (A). For synthesis, 32 variants and 3 original peptides were selected based on the various parameters such as positive charge, aliphatic index and instability index. Peptides variants were tested by using radial diffusion assay against Escherichia coli (ATCC 25922), Staphylococcus aureus (ATCC 25923), Klebsiella pneumoniae (ATCC 10031) and Pseudomonas aeruginosa (ATCC 27853) (FIGS. 6a-c). The zone of inhibition ranged between 10-18 mm for Escherichia coli and Staphylococcus aureus, 6-18 mm & 8-18 mm for Pseudomonas aeruginosa and Klebsiella pneumonia respectively (Table 2). For Gentamicin it was between 22-24 mm. Antifungal activity was tested for promising antibacterial peptides (Chains 104, 105, 109, 201, 204, 306, 307, 308, 310) against Aspergillus flavus (DSM 1959) and Penicillium chrysogenum (DSM 1075). All these peptides has activity at a concentration of 20 μg, Amphotericin B was used as a positive control at 20 μg (FIG. 7).

The test system of data set [2] is Penicillium chrysogenum (DSM 1075). The data set is described as follows: Radial diffusion assay, antifungal, P. chrysogenum. Type of data set: cell-based. The settings on record: 20 μg. How it is done: as §1, §2
Data set [3] relates to human erythrocytes. The class given is cell-based. The procedure: In hemolysis assays, the ability of peptides at 128 μg/ml concentration to lyse human erythrocytes to release hemoglobin was measured. The peptides described here preferably have low hemolytic activity (0.2 to 3.8% hemolysis) in mammal body. […] These peptides are useful as antimicrobial drugs as they show little or no side effects at concentrations needed to kill bacteria.
Minimum inhibition concentrations (MICs) were tested by microbroth dilution method and Chain 104, 105 and 109 inhibited the growth of Escherichia coli (ATCC 25922), Staphylococcus aureus (ATCC 25923), Klebsiella pneumoniae (ATCC 10031) and Pseudomonas aeruginosa (ATCC 27853) between 1-8 μg/ml respectively (Tables 3a, 3b and 3c). The membranolytic activities of the peptides were tested by measuring the release of hemoglobin from erythrocytes of fresh blood donated by voluntiers. Hemoglobin levels were determined spectrometrically by taking OD at 540 nm by following the protocol of Schmidtchen et al., 2011.

Data set [4] relates to gram positive and negative bacteria. The data set is described as follows: MIC by micro broth dilution, summary over the strains tested. Type of data set: cell-based. How it is done: (§3) Minimum inhibition concentrations (MICs) were determined against Escherichia coli (ATCC 25922), Staphylococcus aureus (ATCC 25923), Klebsiella pneumoniae (ATCC 10031) and Pseudomonas aeruginosa (ATCC 27853). Also clinical strains of E. coli, K. pneumoniae, E. cloacae, P. aeruginosa, Serratia marcescens, Proteus mirabilis, S. pneumoniae, Acinetobacter baumannii, A. johnsonii and S. aureus were used for MICs assays. Additionally, clinical strains of yeast including Candida albicans, C. glabrata, C. parapsilosis and C. quillermondiae were used. The susceptibility of these microorganisms to Chain peptides were determined using micro broth dilution assay. Colonies of the respective microorganism from Muller Hinton (MH) agar plates incubated overnight were suspended in MH broth media and final concentration of microorganism was adjusted to 5.0×10^5 cfu/ml. An aliquot of 10 μl of each Chain peptide, or gentamicin, tetracycline as reference antibiotics were added in differing concentrations along with 90 μl of bacterial suspension to 96 well polypropylene plates and incubated at 37° C. for 20 to 24 hours. Concentrations of Chain peptides and reference antibiotics ranged from 0.125 to 128 μg/ml and the MICs were recorded as the lowest concentration with no visual growth of bacteria. Similarly, antifungal MICs were tested in Potato dextrose broth.
On the technique in general: In broth dilution the organism is exposed to a series of concentrations in liquid medium.

Data set [5] deals with clinical strains of Acinetobacter johnsonii. The class given is cell-based. The procedure:
as §3
(§4) Clinical strains of yeasts including Candida albicans, C. glabrata, C. parapsilosis and C. quillermondiae were also tested with the 12 Chain peptides. The minimum inhibitory concentration (MICs) varied between these peptides and are presented in Tables 4a, 4b, 4c and 5a, 5b, 5c. Peptides Chain 105, 201 and 308 are broad spectrum antimicrobials with MICs between 0.5-32 μg/ml against all the bacteria and yeasts tested, except Serratia marcescens and Proteus mirabilis, against which the MICs were between 64-128 μg/ml. Peptide Chain 306 has narrow spectrum activity against E.coli at 1 μg/ml and for the rest of the bacterial strains at >32 μg/ml (FIG. 10).

Data set [6] has as its system clinical strains of Candida albicans. As to the kind of experiment: MIC, clinical yeast strains, Candida albicans. Type of data set: cell-based. More on the design: unit: μg/ml. The procedure:
as §3, §4

In data set [7] the test system is clinical strains of C. glabrata. As to the kind of experiment: MIC, clinical yeast strains, C. glabrata. The class given is cell-based, Candida glabrata. More on the design: unit: μg/ml. The procedure:
as §3, §4

In data set [8] the test system is clinical strains of C. parapsilosis. The data set is described as follows: MIC, clinical yeast strains, C. parapsilosis. Type of data set: cell-based, Candida parapsilosis. More on the design: unit: μg/ml. The procedure:
as §3, §4

Data set [9] has as its system clinical strains of C. quillermondiae. The data set is described as follows: MIC, clinical yeast strains, C. quillermondiae. The class given is cell-based. The conditions noted are these: C. quillermondiae clinical yeast strain 1. The procedure:
as §3, §4

The test system of data set [10] is S. aureus COL (MRSA). As to the kind of experiment: Synergistic activity with Ertapenem (4 μg/ml) against MRSA, MIC. Type of data set: cell-based, Staphylococcus aureus. The settings on record: Ertapenem 4 μg/ml; L-form. The procedure: as §3
Peptides Chain 104, Chain 105, Chain 201, Chain 308, Chain 310 were tested against antibiotic-sensitive strains of S. aureus RN4220 and methicillin resistant strains of S. aureus COL (MRSA). Chain peptides comprising of either L- or D-form amino acids were tested against these bacteria, and the D-form peptides were found have better activity compared to L-form (Table 6). Synergistic activity of chain peptides along with Ertapenem (4 μg/ml) was tested to know whether it will influence the activity against MRSA strains. […] Chain 310 has the best antibacterial activity against the MRSA strains with a MIC of 0.06 & 0.03 μg/ml along with Ertapenem (4 μg/ml) for both forms of L and D-peptides (Table 6).

The mark [11] stands for this setting: Candida albicans clinical yeast strain 1.
Where [12] appears, read: Candida albicans clinical yeast strain 2.
The mark [13] stands for this setting: Candida albicans clinical yeast strain 3.
Setting [14] is: Candida albicans clinical yeast strain 4.
[15] abbreviates: Candida albicans clinical yeast strain 5.
Setting [16] is: C. glabrata clinical yeast strain 1.
The mark [17] stands for this setting: C. glabrata clinical yeast strain 2.
The mark [18] stands for this setting: C. glabrata clinical yeast strain 3.
The mark [19] stands for this setting: C. glabrata clinical yeast strain 4.
[20] abbreviates: C. parapsilosis clinical yeast strain 1.
[21] abbreviates: C. parapsilosis clinical yeast strain 2.
[22] abbreviates: C. parapsilosis clinical yeast strain 3.
Setting [23] is: C. parapsilosis clinical yeast strain 4.

The source of these data is patent US11096985B2, “Antimicrobial peptides, their variants and uses” (priority 2015, dated 2021).

Values after ≈ are worked out from the molar mass of the structure shown. “Also recorded” adds a separate entry of the source. Where a SMILES comes first, the peptide text is derived from it. [ ]: non-standard residue; d: D form.

As for `CC(C)C[C@H](NC(=O)[C@H](Cc1c[nH]c2ccccc12)NC(=O)[C@H](Cc1ccccc1)NC(=O)[C@H](Cc1c[nH]c2ccccc12)NC(=O)[C@H](CCCCN)NC(=O)[C@H](CC(C)C)NC(=O)[C@@H](N)CCCNC(=N)N)C(=O)N[C@@H](Cc1ccccc1)C(=O)N[C@@H](CCCNC(=N)N)C(=O)N[C@@H](CCCCN)C(=O)N[C@@H](CCCNC(=N)N)C(=O)O` [Chain307] (H-RLKWFWLFRKR-OH; N-terminus and C-terminus assumed), in data set [1], the “antifungal activity against Aspergillus flavus” value is on record as “has activity; also recorded: particularly active”. In addition, in data set [2], the “antifungal activity against Penicillium chrysogenum” value is “has activity; also recorded: particularly active”. Besides, in data set [3], the “side effects to humans as tested by hemolysis assay” value is reported as “little side effects”. The “activity against the four ATCC strains” value in data set [4] was “very active”.

Consider `CC[C@@H](C)[C@@H](NC(=O)[C@@H](CCSC)NC(=O)[C@@H](C)NC(=O)[C@@H](CCCNC(=N)N)NC(=O)[C@@H](Cc1c[nH]c2ccccc12)NC(=O)[C@@H](CCCCN)NC(=O)[C@H](N)CCCNC(=N)N)C(=O)N[C@H](CCCNC(=N)N)C(=O)N[C@H](CC(C)C)C(=O)N[C@H](Cc1c[nH]cn1)C(=O)N[C@H](C)C(=O)N[C@H](CCCCN)C(=O)N[C@H](Cc1c[nH]c2ccccc12)C(=O)N[C@H](CC(C)C)C(=O)N[C@H](CCCNC(=N)N)C(=O)N[C@H](CCCCN)C(=O)O` [Chain105D] (H-[dR][dK][dW][dR][dA][dM][dI][dR][dL][dH][dA][dK][dW][dL][dR][dK]-OH), for which the “Minimum inhibitory concentration, Acinetobacter johnsonii strain 1” value in [5] was determined as 4 µg/mL (≈ 1.86 µM). Also, the Minimum inhibitory concentration in data set [6] (setting [11]) came to 32; in data set [6] (setting [12]), 16; in [6] (setting [13]), 32; in data set [6] (setting [14]) it was 32; in data set [6] (setting [15]), 32; in data set [7] (setting [16]), 16. Further, the Minimum inhibitory concentration in data set [7] (setting [17]) amounted to 16; in data set [7] (setting [18]) it was 8; in data set [7] (setting [19]), 32; in data set [8] (setting [20]), 8; in data set [8] (setting [21]), 8; in data set [8] (setting [22]) it was 8. Moreover, the Minimum inhibitory concentration is 4 in data set [8] (setting [23]) and 8 in data set [9].

As for `CC[C@@H](C)[C@@H](NC(=O)[C@@H](CCSC)NC(=O)[C@@H](C)NC(=O)[C@@H](CCCNC(=N)N)NC(=O)[C@@H](Cc1c[nH]c2ccccc12)NC(=O)[C@@H](CCCCN)NC(=O)[C@H](N)CCCNC(=N)N)C(=O)N[C@H](CCCNC(=N)N)C(=O)N[C@H](CC(C)C)C(=O)N[C@H](Cc1c[nH]cn1)C(=O)N[C@H](C)C(=O)N[C@H](CCCCN)C(=O)N[C@H](CCCNC(=N)N)C(=O)N[C@H](CC(C)C)C(=O)N[C@H](CCCNC(=N)N)C(=O)N[C@H](CCCCN)C(=O)O` [Chain104D] (H-[dR][dK][dW][dR][dA][dM][dI][dR][dL][dH][dA][dK][dR][dL][dR][dK]-OH), in [5], the “Minimum inhibitory concentration, Acinetobacter johnsonii strain 1” value was 8 µg/mL (≈ 3.77 µM). The Minimum inhibitory concentration in data set [6] (setting [11]), in data set [6] (setting [12]), in data set [6] (setting [13]), in data set [6] (setting [14]), in data set [6] (setting [15]) and in [7] (setting [16]) was 8 in each case. Also, the Minimum inhibitory concentration in data set [7] (setting [17]) is 8; in data set [7] (setting [18]) it was 8; in data set [7] (setting [19]), 16; in data set [8] (setting [20]), 4; in [8] (setting [21]), 4; in data set [8] (setting [22]), 4. The results for the Minimum inhibitory concentration in data set [8] (setting [23]) and in data set [9] were 2 and 4, respectively.

Turning to `CC(C)C[C@H](NC(=O)[C@H](CCCCN)NC(=O)[C@H](CCCCN)NC(=O)[C@H](Cc1ccccc1)NC(=O)[C@H](CC(C)C)NC(=O)[C@H](Cc1c[nH]c2ccccc12)NC(=O)[C@H](CCCNC(=N)N)NC(=O)[C@H](Cc1c[nH]c2ccccc12)NC(=O)[C@H](CCCCN)NC(=O)[C@H](CCCNC(=N)N)NC(=O)[C@@H](N)CCCCN)C(=O)O` [Chain310] (H-KRKWRWLFKKL-OH; N-terminus and C-terminus assumed), the “antifungal activity against Aspergillus flavus” value in data set [1] was “has activity; also recorded: particularly active”. Further, the “antifungal activity against Penicillium chrysogenum” value in [2] is “has activity; also recorded: particularly active”. Moreover, in data set [3], the “side effects to humans as tested by hemolysis assay” value is listed as “little side effects”. For the same molecule, the “MIC against MRSA strains along with Ertapenem, L-peptide” value in data set [10] turned out to be 0.06 µg/mL. Moreover, the “activity against the four ATCC strains” value in data set [4] is given as “very active”.
